# Data: patent US12312346B2, “Pyridopyrimidine compounds and methods of their use” (Tufts Medical Center, Inc., priority 2018, dated 2025)
# Experiments:
# [1] = test system: phosphorylated pRB at SER-780 in HELA cells; experiment: Immunoblot of phosphorylated pRB (SER-780), HELA; format: cell-based
# Description: FIG. 5E is an image of a representative immunoblot showing the levels of phosphorylated pRB at SER-780 in HELA cells following treatment of these cells with a vehicle, PD, or compound GD for 24 hours. Tubulin was used as loading control.
# (§1) Table 2: Experimental Procedures: sensitivity to CDK6 kinase activity inhibition was tested by incubating different cell lines in the presence of CDK6 inhibitor GD007/PBS for either 24 hours for detecting the status of pRB-780 phosphorylation, or 5 days for determining the effect of GD007 on cell proliferation. (1) By immunoblotting (WB), we will detect phospho-pRB-S^780, one of the substrates of CDK6 kinase; (2) By using FACS analysis, we will stain treated cells with Propidium Iodide (PI), a commonly used fluorescent intercalator, to measure the subpopulation of cell cycle to reveal any impact of CDK6 inhibition on cell proliferation; (3) cell numbers will be counted using hemocytometer.
# [2] = test system: phosphorylated pRB at SER-780 in U251 cells; experiment: Immunoblot of phosphorylated pRB (SER-780), U251; format: cell-based
# Description: FIG. 5B is an image of a representative immunoblot showing the levels of phosphorylated pRB at SER-780 in U251 cells following treatment of these cells with a vehicle, PD, or compound GD for 24 hours. Tubulin was used as loading control.
# as §1
# [3] = test system: mouse KO-MEFs (CDK6^−/− MEFs); experiment: Cell cycle and cell number, CDK6-/- MEFs (KO-MEFs); format: cell-based
# Description: FIG. 6E is a series of charts showing representative cell cycle profiles of mouse KO-MEFs treated with a vehicle (V), PD (0.5 μM), or compound GD at 1, 5, 10, and 20 μM for 6 days.
# FIG. 6F is a histogram summarizing the cell cycle distribution in FIG. 6E. Data shown are mean±S.D. (n=6); *P<0.05 vs its vehicle control, t-test.
# FIG. 6G is a bar graph summarizing the cell numbers of KO-MEFs treated with PD (0.5 μM) or compound GD at different doses for 6 days. Data shown are mean±S.D. (n=6); *P<0.05 vs its vehicle control, t-test.
# (§2) HCl salt of 6-acetyl-5-methyl-2-((4-(piperazin-1-ylmethyl)thiazol-2-yl)amino)pyrido[2,3-d]pyrimidin-7(8H)-one (Compound GD) prepared in Example 1 was examined for its inhibitory activity in cancer cell lines and WT and CDK6^−/− mouse embryonic fibroblasts (MEFs) and stromal vascular fractions (SVFs). MEFs and SVFs are enriched with mesenchymal stem cells (MSC) and pre-adipocytes which can differentiate into a variety of cell types, including adipocytes.
# mouse WT SVFs = experiment: Cell number, WT-SVFs; format: cell-based; details: 6 days; GD 0.1-10 μM
# Description: FIG. 7A is a bar graph showing the cell numbers of WT-SVFs treated with LEE (10 μM) or compound GD at 0.1, 0.5, 1.0, 5.0, and 10 μM for 6 days. Data shown are mean±S.D. (n=6); *P<0.05 vs its vehicle control, t-test.
# as §2
# CDK6^−/− SVFs (KO-SVFs) = experiment: Cell number, KO-SVFs; format: cell-based, mouse; details: 6 days; GD 0.1-10 μM
# Description: FIG. 7B is a bar graph showing the cell numbers of KO-SVFs treated with LEE (10 μM) or compound GD at 0.1, 0.5, 1.0, 5.0, and 10 μM for 6 days. Data shown are mean±S.D. (n=6); *P<0.05 vs its vehicle control, t-test.
# as §2
# [4] = test system: human leukemia cell line PEER (with WT Notch); experiment: Cell cycle (PI staining, S-G2-M cells), PEER; format: cell-based
# Description: FIG. 3A Representative cell cycle profiles of human leukemia cell line PEER (with WT Notch) treated with a vehicle (V) (for palbociclib (PD) or compound GD), PD (0.5 μM), or compound GD at 0.05, 0.5, and 5 μM for 6 days.
# FIG. 3B is a histogram summarizing the cell cycle distribution of the PEER cell line in FIG. 3A. Data shown are mean±S.D. (n=6); *P<0.05 vs its vehicle controls, t-test.
# FIG. 3C is a chart showing the percentage of S-G2-M cells in FIG. 3B. […]
# as §1
# [5] = test system: phosphorylated pRB at SER-780 in U87 cells; experiment: Immunoblot of phosphorylated pRB (SER-780), U87; format: cell-based, human
# Description: FIG. 5C is an image of a representative immunoblot showing the levels of phosphorylated pRB at SER-780 in U87 cells following treatment of these cells with a vehicle, PD, or compound GD for 24 hours. Tubulin was used as loading control.
# as §1
# mouse WT-MEFs = experiment: Cell cycle and cell number, WT-MEFs; format: cell-based
# Description: FIG. 6A is a series of charts showing representative cell cycle profiles of mouse WT-MEFs treated with a vehicle (V), PD (0.5 μM), LEE (10 μM), or compound GD at 1, 5, and 10 μM for 6 days.
# FIG. 6B is a histogram summarizing the cell cycle distribution in FIG. 6A. Data shown are mean±S.D. (n=6); *P<0.05 vs vehicle control, t-test.
# FIG. 6C is a chart showing the percentage of S-G2-M cells in FIG. 6B.
# FIG. 6D is a bar graph summarizing the cell number of WT-MEFs treated with PD (0.5 μM), LEE (10 μM), or compound GD at varying doses for 6 days. Data shown are mean±S.D. (n=6); *P<0.05 vs vehicle control, t-test.
# as §2
smiles,measurement,setting,value
"CC(=O)c1c(C)c2cnc(Nc3nc(CN4CCNCC4)cs3)nc2[nH]c1=O [Compound GD, 6-acetyl-5-methyl-2-((4-(piperazin-1-ylmethyl)thiazol-2-yl)amino)pyrido[2,3-d]pyrimidin-7(8H)-one]",Compound GD Efficacy,"[1]; Cervical Cancer: Hela, WB: P-RB-780",Efficacious
same,pRB phosphorylation,"[1]; cervical cancer cell line (Hela cells), 24 hours",inhibits pRB phosphorylation
same,Compound GD Efficacy,"[2]; Brain Tumor: U251, WB: P-RB-780",Efficacious
same,pRB phosphorylation,"[2]; glioblastoma cell line U251, 24 hours",inhibits pRB phosphorylation
same,proliferation of CDK6−/− MEFs,"[3]; 6 days, GD 1-20 μM, PD 0.5 μM",little effect
same,preference for CDK6 over CDK4,[3]; concluded from WT versus CDK6−/− MEFs and SVFs,preferentially inhibits CDK6 over CDK4
same,proliferation of mouse WT SVFs,mouse WT SVFs,inhibited proliferation
same,proliferation of CDK6−/− SVFs,CDK6^−/− SVFs (KO-SVFs),little effect
same,IC50,"[4]; Homo sapiens, 144 h, PEER, 6 days, read-out: IC50 (percentage of S-G2-M cells, growth inhibition)",~1300 nM
same,Compound GD Efficacy,"[4]; Leukemic cells: PEER, PI Staining, and cell number counting",Efficacious
same,Compound GD Efficacy,"[5]; Brain Tumor: U87 human primary glioblastoma cell line, WB: P-RB-780",Efficacious
same,pRB phosphorylation,"[5]; glioblastoma cell line U87, 24 hours",inhibits pRB phosphorylation
same,IC50,"mouse WT-MEFs; 144 h, mouse WT-MEF, 6 days, read-out: IC50 (proliferation, percentage of S-G2-M cells)",~1200 nM
same,fraction of dead cells (effect on cell viability) relative to PD,"mouse WT-MEFs; WT-MEFs, FIG. 6B, GD 10 μM vs PD 0.5 μM",smaller
